Data reported in patent US20150274719A1, “AMINO-SUBSTITUTED IMIDAZO[1,2-A]PYRIDINECARBOXAMIDES AND THEIR USE” (BAYER PHARMA AKTIENGESELLSCHAFT, priority 2012, published 2015).
Where a name gives a salt, the structure may show the parent alone.

Target: T1, recombinant guanylate cyclase reporter cell line (Rattus norvegicus, UniProt P19686+P20595)
T1 construct: expressed in transfected cells; host or cells: recombinant reporter cell line
T1 sequence (P19686 1-690): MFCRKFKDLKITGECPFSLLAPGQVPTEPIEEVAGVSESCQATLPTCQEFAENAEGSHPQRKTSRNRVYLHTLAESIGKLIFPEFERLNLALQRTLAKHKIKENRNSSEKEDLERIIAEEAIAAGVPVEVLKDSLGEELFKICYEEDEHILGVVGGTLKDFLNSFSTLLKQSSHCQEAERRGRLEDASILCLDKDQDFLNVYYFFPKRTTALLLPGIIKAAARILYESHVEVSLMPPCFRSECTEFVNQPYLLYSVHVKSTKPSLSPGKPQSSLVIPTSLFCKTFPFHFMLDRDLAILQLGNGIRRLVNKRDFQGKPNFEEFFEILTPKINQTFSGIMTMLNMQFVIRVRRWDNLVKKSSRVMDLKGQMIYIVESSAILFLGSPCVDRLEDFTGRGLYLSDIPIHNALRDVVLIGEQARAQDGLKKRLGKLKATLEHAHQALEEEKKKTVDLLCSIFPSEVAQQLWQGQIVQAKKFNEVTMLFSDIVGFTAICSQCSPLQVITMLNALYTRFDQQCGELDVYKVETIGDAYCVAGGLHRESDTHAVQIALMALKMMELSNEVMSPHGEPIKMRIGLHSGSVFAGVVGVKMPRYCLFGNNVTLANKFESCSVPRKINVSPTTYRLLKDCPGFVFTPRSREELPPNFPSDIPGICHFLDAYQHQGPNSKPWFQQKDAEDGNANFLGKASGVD
T1 sequence (P20595 1-619): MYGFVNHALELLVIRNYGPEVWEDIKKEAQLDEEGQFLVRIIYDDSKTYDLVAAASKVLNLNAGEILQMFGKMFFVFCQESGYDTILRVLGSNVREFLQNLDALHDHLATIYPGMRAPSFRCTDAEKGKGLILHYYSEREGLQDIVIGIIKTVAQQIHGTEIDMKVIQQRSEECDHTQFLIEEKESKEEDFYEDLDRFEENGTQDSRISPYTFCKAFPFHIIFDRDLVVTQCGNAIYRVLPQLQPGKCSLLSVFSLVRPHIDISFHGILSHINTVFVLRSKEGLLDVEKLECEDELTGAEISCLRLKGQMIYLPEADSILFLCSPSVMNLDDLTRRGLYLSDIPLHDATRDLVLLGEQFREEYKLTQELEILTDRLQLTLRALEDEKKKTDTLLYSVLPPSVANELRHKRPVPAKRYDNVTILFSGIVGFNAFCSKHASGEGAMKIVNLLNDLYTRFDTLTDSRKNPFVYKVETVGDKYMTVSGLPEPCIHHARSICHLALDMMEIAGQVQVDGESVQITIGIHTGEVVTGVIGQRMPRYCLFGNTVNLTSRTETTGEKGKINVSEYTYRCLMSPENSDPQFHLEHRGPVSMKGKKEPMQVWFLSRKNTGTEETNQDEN
Experiment: Action on recombinant guanylate cyclase reporter cell line
Format: cell-based
Conditions: in some cases mean values from individual determinations
Protocol: B-2. Action on Recombinant Guanylate Cyclase Reporter Cell Line
The cellular action of the compounds according to the invention is determined on a recombinant guanylate cyclase reporter cell line, as described in F. Wunder et al., Anal. Biochem. 339, 104-112 (2005).
Representative MEC values (MEC=minimal effective concentration) for the compounds according to the invention are shown in the following table (in some cases as mean values obtained from individual determinations): […]

MEC (minimal effective concentration) [µM]	Structure (SMILES)
0.30	Cc1nc2c(OCc3c(F)cccc3F)cc(Cl)cn2c1C(=O)NCC(C)N (racemic) [Example 23, rac-N-(2-aminopropyl)-6-chloro-8-[(2,6-difluorobenzyl)oxy]-2-methylimidazo[1,2-a]-pyridine-3-carboxamide]
0.30	Cc1nc2c(OCc3c(F)cccc3F)cccn2c1C(=O)NC1CNc2ccccc21 (racemic) [Example 28, rac-8-[(2,6-difluorobenzyl)oxy]-N-(2,3-dihydro-1H-indol-3-yl)-2-methylimidazo[1,2-a]pyridine-3-carboxamide]
1.00	Cc1nc2c(OCc3c(F)cccc3F)cccn2c1C(=O)NCC(C)N (racemic) [Example 34, rac-N-(2-aminopropyl)-8-[(2,6-difluorobenzyl)-oxy]-2-methyl-imidazo[1,2-a]pyridine-3-carboxamide dihydrochloride]
1.00	Cc1nc2c(OCC3CCCCC3)cccn2c1C(=O)NC(CN)c1ccc(Cl)cc1 (racemic) [Example 43, rac-N-[2-Amino-1-(4-chlorophenyl)ethyl]-8-(cyclohexylmethoxy)-2-methylimidazo[1,2-a]-pyridine-3-carboxamide]
0.30	Cc1nc2c(OCC3CCCCC3)cccn2c1C(=O)NC(CN)c1ccccc1 (racemic) [Example 44, rac-N-(2-Amino-1-phenylethyl)-8-(cyclohexylmethoxy)-2-methylimidazo[1,2-a]pyridine-3-carboxamide]
1.00	Cc1nc2c(OCC3CCCCC3)cccn2c1C(=O)NC(CN)c1ccc(F)c(F)c1 (racemic) [Example 46, rac-N-[2-Amino-1-(3,4-difluorophenyl)ethyl]-8-(cyclohexylmethoxy)-2-methylimidazo[1,2-a]-pyridine-3-carboxamide]
0.30	Cc1nc2c(OCc3c(F)cccc3F)cc(Cl)cn2c1C(=O)NC1CNc2ccccc21 (racemic) [Example 49, rac-6-Chloro-8-[(2,6-difluorobenzyl)oxy]-N-(2,3-dihydro-1H-indol-3-yl)-2-methylimidazo[1,2-a]-pyridine-3-carboxamide]
0.03	Cc1nc2c(OCc3c(F)cccc3F)cccn2c1C(=O)NC1CCNc2ccccc21 (racemic) [Example 50, rac-8-[(2,6-Difluorobenzyl)oxy]-2-methyl-N-(1,2,3,4-tetrahydroquinolin-4-yl)imidazo[1,2-a]-pyridine-3-carboxamide]
1.00	Cc1nc2c(OCc3c(F)cccc3F)cccn2c1C(=O)NC(CN)COc1ccc(F)cc1 (racemic) [Example 58, rac-N-[1-amino-3-(4-fluorophenoxy)propan-2-yl]-8-[(2,6-difluorobenzyl)oxy]-2-methylimidazo[1,2-a]pyridine-3-carboxamide]
3.00	Cc1nc2c(OCc3c(F)cccc3F)cccn2c1C(=O)NC(CN)COc1ccccc1 (racemic) [Example 59, rac-N-(1-amino-3-phenoxypropan-2-yl)-8-[(2,6-difluorobenzyl)oxy]-2-methylimidazo[1,2-a]-pyridine-3-carboxamide dihydrochloride]
0.30	Cc1nc2c(OCc3c(F)cccc3F)cccn2c1C(=O)NC(CN)COC(C)C (racemic) [Example 63, rac-N-(1-Amino-3-isopropoxypropan-2-yl)-8-[(2,6-difluorobenzyl)oxy]-2-methylimidazo[1,2-a]-pyridine-3-carboxamide]
1.00	Cc1nc2c(OCc3c(F)cccc3F)cccn2c1C(=O)NC1CNc2ccccc2C1 (racemic) [Example 75, rac-8-[(2,6-Difluorobenzyl)oxy]-2-methyl-N-(1,2,3,4-tetrahydroquinolin-3-yl)imidazo[1,2-a]-pyridine-3-carboxamide]
0.30	Cc1cc(OCc2c(F)cccc2F)c2nc(C)c(C(=O)NC3CNc4ccccc4C3)n2c1 (racemic) [Example 76, rac-8-[(2,6-difluorobenzyl)oxy]-2,6-dimethyl-N-(1,2,3,4-tetrahydroquinolin-3-yl)imidazo[1,2-a]-pyridine-3-carboxamide]
1.00	Cc1cc(OCc2c(F)cccc2F)c2nc(C)c(C(=O)NC(C)C3CCN(C)CC3)n2c1 (racemic) [Example 77, rac-8-[(2,6-difluorobenzyl)oxy]-2,6-dimethyl-N-[1-(1-methylpiperidin-4-yl)ethyl]imidazo[1,2-a]-pyridine-3-carboxamide]
1.00	Cc1nc2c(OCc3c(F)cccc3F)cc(Cl)cn2c1C(=O)NC(C)C1CCN(C)CC1 (racemic) [Example 78, rac-6-chloro-8-[(2,6-difluorobenzyl)oxy]-2-methyl-N-[1-(1-methylpiperidin-4-yl)ethyl]-imidazo[1,2-a]pyridine-3-carboxamide]
1.00	Cc1nc2c(OCc3c(F)cccc3F)cccn2c1C(=O)NCC1NCCc2ccccc21 (racemic) [Example 80, rac-8-[(2,6-difluorobenzyl)oxy]-2-methyl-N-(1,2,3,4-tetrahydroisoquinolin-1-ylmethyl)-imidazo[1,2-a]pyridine-3-carboxamide]
1.00	Cc1nc2c(OCc3c(F)cccc3F)cccn2c1C(=O)NC1CCCN(C)C1 (racemic) [Example 84, rac-8-[(2,6-difluorobenzyl)oxy]-2-methyl-N-(1-methylpiperidin-3-yl)imidazo[1,2-a]-pyridine-3-carboxamide]
1.00	Cc1nc2c(OCc3c(F)cccc3F)cccn2c1C(=O)NC1CCN(Cc2ccccc2)C1 (racemic) [Example 85, rac-N-(1-benzylpyrrolidin-3-yl)-8-[(2,6-difluoro-benzyl)oxy]-2-methylimidazo[1,2-a]-pyridine-3-carboxamide]
1.00	Cc1nc2c(OCc3c(F)cccc3F)cc(Cl)cn2c1C(=O)NCC1CCCCN1 (racemic) [Example 118, rac-6-chloro-8-[(2,6-difluorobenzyl)oxy]-2-methyl-N-(piperidin-2-ylmethyl)imidazo[1,2-a]-pyridine-3-carboxamide]
1.00	Cc1nc2c(OCc3c(F)cccc3F)cccn2c1C(=O)NC12CNCCC1C2 (racemic) [Example 125, rac-N-(3-Azabicyclo[4.1.0]hept-1-yl)-8-[(2,6-difluorobenzyl)oxy]-2-methylimidazo[1,2-a]-pyridine-3-carboxamide]
1.00	Cc1nc2c(OCc3c(F)cccc3F)cccn2c1C(=O)NCC(C)N1CCOCC1 (racemic) [Example 132, rac-8-[(2,6-difluorobenzyl)oxy]-2-methyl-N-[2-(morpholin-4-yl)propyl]imidazo[1,2-a]pyridine-3-carboxamide]
3.00	Cc1nc2c(OCc3c(F)cccc3F)cccn2c1C(=O)NC(CN1CCOCC1)c1ccccc1 (racemic) [Example 134, rac-8-[(2,6-difluorobenzyl)oxy]-2-methyl-N-[2-(morpholin-4-yl)-1-phenylethyl]imidazo[1,2-a]-pyridine-3-carboxamide]
1.00	Cc1cc(OCc2c(F)cccc2F)c2nc(C)c(C(=O)NCCNC(C)C)n2c1 (racemic) [Example 135, rac-8-[(2,6-difluorobenzyl)oxy]-N-[2-(isopropylamino)ethyl]-2,6-dimethylimidazo[1,2-a]pyridine-3-carboxamide]
0.30	Cc1cc(OCc2c(F)cccc2F)c2nc(C)c(C(=O)NCC(C)N3CCOCC3)n2c1 (racemic) [Example 138, rac-8-[(2,6-difluorobenzyl)oxy]-2,6-dimethyl-N-[2-(morpholin-4-yl)propyl]imidazo[1,2-a]-pyridine-3-carboxamide]
